Patent publication US20250043250A1, “COMPOSITIONS AND METHODS FOR EXPANDING KERATINOCYTES” (STEMCELL Technologies Canada Inc., priority 2021, published 2025)

Tests used:
TP63 = experiment: FACS analysis of TP63+ cells; assay type: cell-based, human; conditions: 1C iPS derived skin organoid cells, HKGS medium with or without supplement (FIG. 12)
Text: WLS-1C iPS cells were formed into hair-bearing skin organoids as described herein and dissociated prior to plating the cells in EpiLife HKGS, or in EpiLife HKGS supplemented with the indicated small molecules. The cells were stained for TP63 expression and analyzed by FACS.
The ability of a commercially available medium to expand PSC-derived keratinocytes could be somewhat restored upon supplementation with one or more small molecule inhibitors, but not to the levels of DermaCult™ (FIG. 11). Specifically, HKGS medium was supplemented with A83-01, DAPT, Y-27632, or all three of A83-01, DAPT, and Y-27632. […] These findings were confirmed in a different experiment where 1C iPS cells were cultured in the foregoing media conditions and analyzed for p63 expression, to distinguish keratinocytes from other cell types included in the PSC-derived skin organoids, such as fibroblasts (FIG. 12).

[1] = test system: PSC-derived keratinocytes; experiment: Adherent monolayer culture of dissociated PSC-derived hair-bearing skin organoid cells: colony emergence and morphology; assay type: cell-based, human; conditions: H9 ES and 1C iPS derived cells, HKGS medium supplemented with the small molecule(s) (FIG. 11)
Description: The aggregates of Example 1 were plated under non-adherent conditions in an AggreWell™ or a 96-well plate, and cultured for 12 days in a skin organoid induction medium, such as STEMdiff™ Skin Organoid Induction Medium (STEMCELL Technologies). Following, the skin organoids are transferred into STEMdiff™ Skin Organoids Maturation Medium (STEMCELL Technologies) for at least 8 weeks, adding or changing the medium every 3-4 days. After the skin organoids have matured, preferably presenting as hair-bearing skin organoids (e.g. hair placode present skin organoids), they are dissociated overnight in a 37 degree incubator in a Dispase solution. […]
Various commercially available cell culture media are marketed for the purpose of culturing human epidermal keratinocytes: EpiLife™ Defined Growth Supplement for use with EpiLife™ medium; Gibco™ Human Keratinocyte Growth Supplement for use with EpiLife medium or Medium 154; and Cnt-57 Epithelial Proliferation Medium. […] Population doublings were also assessed over several weeks for keratinocytes grown from various PSC lines in a culture medium of this disclosure in comparison to EpiLife EDGS and EpiLife HKGS. […]

**Q.** Which “emergence of p63+ cells” value (TP63) does the source give for `C[C@@H](N)[C@H]1CC[C@H](C(=O)Nc2ccncc2)CC1` [Y-27632] here?
**A.** emergence of comparable numbers of p63+ cells

**Q.** What about the “emergence of colonies in supplemented HKGS medium” value [1] of the same molecule?
**A.** emergence of colonies
